# Experiment: In vitro skin permeability test (Franz diffusion cell)
# Format: in vitro ADME, rat (Slc: Wistar)
# Experimental: In this test, a Franz diffusion cell (effective diffusion area: 1.0 cm^2, PermeGear, Hellertown, US) was used, and the abdominal skin (shaved before the skin is removed) of 5-week-old male rats (Slc: Wistar) was used.
# The abdominal skin of rats was cut to about […] (23 mm round) and set in a receptor cell filled with 8.0 mL of the receptor solution (saline of 0.1% bovine serum albumin (BSA) (purchased from FUJIFILM Wako Pure Chemical Corporation)). The receptor solution was kept at 32° C. in a circulator water bath at a constant temperature. After 2, 4, 6, 8 and 24 hours, the receptor solution (0.2 mL) was collected and each of the collected solution was used as samples. After collecting the samples, the same amount of the receptor solution was added into the receptor cell to keep the volume of the receptor solution constant. […] The HPLC condition was as follows: Column: YMC Pack Pro C18 RS 5 μm, 4.6×150 mm; YMC CO., LTD., Mobile Phase: acetonitrile/0.1% trifluoroacetic acid (23/77, v/v) at 35° C., Flow Rate: 1.0 mL/min. The wavelength of the UV detector was set to 215 nm.
compound,measurement,setting,value
"CCOCc1nc2c(N)nc3ccccc3c2n1CC(C)(C)O [R848, Resiquimod]",accumulative amount of the co-administered R848 for 24 hours,R848 co-administered with WT1 peptide,about 350 μg/cm^2
same,accumulative amount of the individually-administered R848 for 24 hours,R848 individually administered,about 1500 μg/cm^2

# From patent US20240024444A1, “Combined Preparation” (MEDRx Co., Ltd., priority 2020, published 2024)
